Assay results: patent US20090099177A1, “PYRIDYL COMPOUNDS” (priority 2006, published 2009)
Where a name gives a salt, the structure may show the parent alone.

Legend:
human EP1 receptor = target: T1, human EP1 receptor (Homo sapiens, UniProt P34995); assay: human EP1 calcium mobilisation assay; format: cell-based; conditions: for Ki: human EP1, CHO-K1 cells, antagonism of PGE2, averages of a number of experiments, read-out: functional pKi value (converted)
T1 construct: expressed in transfected cells; host or cells: CHO-K1
T1 sequence (P34995 1-402): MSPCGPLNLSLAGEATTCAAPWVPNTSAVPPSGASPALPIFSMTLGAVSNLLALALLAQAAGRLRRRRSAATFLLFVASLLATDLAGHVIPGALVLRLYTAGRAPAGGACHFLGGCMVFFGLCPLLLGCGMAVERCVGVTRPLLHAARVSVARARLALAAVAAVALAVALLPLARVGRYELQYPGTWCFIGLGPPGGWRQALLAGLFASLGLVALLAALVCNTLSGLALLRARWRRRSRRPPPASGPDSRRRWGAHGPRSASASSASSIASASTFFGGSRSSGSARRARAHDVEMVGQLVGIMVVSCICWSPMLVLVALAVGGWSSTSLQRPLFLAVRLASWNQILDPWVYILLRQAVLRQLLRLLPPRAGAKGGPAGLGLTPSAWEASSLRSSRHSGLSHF
Experimental: (§1) Briefly, the antagonist properties of compounds are assessed by their ability to inhibit the mobilisation of intracellular calcium ([Ca^2+]i) in response to activation of EP1 or EP3 receptors by the natural agonist hormone prostaglandin E2 (PGE2). Increasing concentrations of antagonist reduce the amount of calcium that a given concentration of PGE2 can mobilise. The net effect is to displace the PGE2 concentration-effect curve to higher concentrations of PGE2. The amount of calcium produced is assessed using a calcium-sensitive fluorescent dye such as Fluo-4, AM and a suitable instrument such as a Fluorimetric Imaging Plate Reader (FLIPR). Increasing amounts of [Ca^2+]i produced by receptor activation increase the amount of fluorescence produced by the dye and give rise to an increasing signal. The signal may be detected using the FLIPR instrument and the data generated may be analysed with suitable curve-fitting software.
(§2) The human EP1 or EP3 calcium mobilisation assay (hereafter referred to as ‘the calcium assay’) utilises Chinese hamster ovary-K1 (CHO-K1) cells into which a stable (pCIN; BioTechniques 20 (1996): 102-110) vector containing either EP1 or EP3 cDNA has previously been transfected. Cells are cultured in suitable flasks containing culture medium such as DMEM:F-12 supplemented with 10% v/v foetal calf serum, 2 mM L-glutamine, 0.25 mg/ml geneticin, 100 μM flurbiprofen and 10 μg/ml puromycin.
(§3) For assay, cells are harvested using a proprietary reagent that dislodges cells such as Versene. Cells are re-suspended in a suitable quantity of fresh culture media for introduction into a 384-well plate. Following incubation for 24 hours at 37° C. the culture media is replaced with a medium containing Fluo-4 and the detergent pluronic acid, and a further incubation takes place. Concentrations of compounds are then added to the plate in order to construct concentration-effect curves. This may be performed on the FLIPR in order to assess the agonist properties of the compounds. Concentrations of PGE2 are then added to the plate in order to assess the antagonist properties of the compounds.
(§4) The data so generated may be analysed by means of a computerised curve-fitting routine. The concentration of compound that elicits a half-maximal inhibition of the calcium mobilisation induced by PGE2 (pIC50) may then be estimated.

human EP3 receptor = target: T2, human EP3 receptor (Homo sapiens, UniProt P43115); assay: human EP3 calcium mobilisation assay; format: cell-based; conditions: human EP3, CHO-K1 cells, antagonism of PGE2; averages of a number of experiments; read-out: functional pKi value (converted)
T2 construct: expressed in transfected cells; host or cells: CHO-K1
T2 sequence (P43115 1-390): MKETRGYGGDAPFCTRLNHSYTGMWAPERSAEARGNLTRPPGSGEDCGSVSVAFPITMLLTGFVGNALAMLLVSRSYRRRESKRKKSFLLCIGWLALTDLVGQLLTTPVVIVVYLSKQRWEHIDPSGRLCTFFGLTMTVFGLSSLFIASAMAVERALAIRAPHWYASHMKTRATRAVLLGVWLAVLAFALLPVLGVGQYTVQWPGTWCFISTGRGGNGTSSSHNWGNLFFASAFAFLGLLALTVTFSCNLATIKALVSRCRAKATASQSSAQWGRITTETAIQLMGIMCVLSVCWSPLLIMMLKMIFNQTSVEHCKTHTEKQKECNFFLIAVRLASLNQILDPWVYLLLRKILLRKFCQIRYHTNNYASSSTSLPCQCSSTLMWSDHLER
Experimental: as §1, §2, §3, §4

[1] = target: T3, human prostanoid EP1 receptor (Homo sapiens, UniProt P34995); assay: Binding assay for the human prostanoid EP1 receptor (competition with [3H]-PGE2); conditions: [3H]-PGE2 competition, human EP1, CHO-K1 membranes; averages of a number of experiments; read-out: pIC50 value (converted)
T3 construct: expressed in transfected cells; host or cells: CHO-K1 (membrane fraction)
T3 sequence (P34995 1-402): T1 sequence (P34995 1-402)
Experimental: Competition assay using [^3H]-PGE2.
Compound potencies are determined using a radioligand binding assay. In this assay compound potencies are determined from their ability to compete with tritiated prostaglandin E2 ([^3H]-PGE2) for binding to the human EP1 receptor.
This assay utilises Chinese hamster ovary-K1 (CHO-K1) cells into which a stable vector containing the EP1 cDNA has previously been transfected. Cells are cultured in suitable flasks containing culture medium such as DMEM:F-12 supplemented with 10% v/v foetal calf serum, 2 mM L-glutamine, 0.25 mg/ml geneticin, 10 μg/ml puromycin and 10 μM indomethacin.
Cells are detached from the culture flasks by incubation in calcium and magnesium free phosphate buffered saline containing 1 mM disodium ethylenediaminetetraacetic acid (Na2EDTA) and 10 μM indomethacin for 5 min. The cells are isolated by centrifugation at 250×g for 5mins and suspended in an ice cold buffer such as 50 mM Tris, 1 mM Na2EDTA, 140 mM NaCl, 10 μM indomethacin (pH 7.4). The cells are homogenised using a Polytron tissue disrupter (2×10 s burst at full setting), centrifuged at 48,000×g for 20mins and the pellet containing the membrane fraction is washed (optional) three times by suspension and centrifugation at 48,000×g for 20mins. The final membrane pellet is suspended in an assay buffer such as 10 mM 2-[N-morpholino]ethanesulphonic acid, 1 mM Na2EDTA, 10 mM MgCl2 (pH 6). Aliquots are frozen at −80° C. until required.
For the binding assay the cell membranes, competing compounds and [^3H]-PGE2 (3 nM final assay concentration) are incubated in a final volume of 100 μl for 30 min at 30° C. All reagents are prepared in assay buffer. Reactions are terminated by rapid vacuum filtration over GF/B filters using a Brandell cell harvester. The filters are washed with ice cold assay buffer, dried and the radioactivity retained on the filters is measured by liquid scintillation counting in Packard TopCount scintillation counter.
The data are analysed using non linear curve fitting techniques to determine the concentration of compound producing 50% inhibition of specific binding (IC50).

EP1 receptor [2] = target: T4, EP1 receptor (Rattus norvegicus, UniProt P70597); design: host or cells: rat, in vivo; conditions: chronic constriction injury; cited from earlier work
T4 sequence (P70597 1-405): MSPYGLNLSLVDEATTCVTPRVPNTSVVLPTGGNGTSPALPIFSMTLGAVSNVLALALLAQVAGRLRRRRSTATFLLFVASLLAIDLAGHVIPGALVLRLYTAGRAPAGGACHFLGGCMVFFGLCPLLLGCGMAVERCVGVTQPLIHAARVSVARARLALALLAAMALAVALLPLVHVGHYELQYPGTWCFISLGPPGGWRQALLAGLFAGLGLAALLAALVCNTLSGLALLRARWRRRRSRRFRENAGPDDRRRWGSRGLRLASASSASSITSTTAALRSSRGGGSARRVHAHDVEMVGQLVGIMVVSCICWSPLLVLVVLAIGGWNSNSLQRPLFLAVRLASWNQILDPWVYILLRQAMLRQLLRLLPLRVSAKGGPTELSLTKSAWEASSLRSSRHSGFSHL

EP1 receptor [3] = target: T4, EP1 receptor; design: host or cells: rodent, in vivo; conditions: rodent, post-operative pain; cited from earlier work

Compound | IC50 (human EP1 receptor; human EP1 calcium mobilisation assay, read-out: pIC50 values (converted)) [nM] | Ki (human EP3 receptor) [nM] | Ki (human EP1 receptor) [nM] | IC50 [1] [nM] | hyperalgesia and allodynia (EP1 receptor [2]) | mechanical hyperalgesia (EP1 receptor [3])
CC(C)(C)NC(=O)c1cccc(Cc2cc(Cl)ccc2OCc2ccccc2)n1 [Example 8, 6-({5-Chloro-2-[(phenylmethyl)oxy]phenyl}methyl)-N-(1,1-dimethylethyl)-2-pyridinecarboxamide] | > 10000 | ≤ 3160 |  |  |  | 
CC(C)NC(=O)c1cccc(Cc2cc(Cl)ccc2OCc2ccccc2)n1 [Example 9, 6-({5-Chloro-2-[(phenylmethyl)oxy]phenyl}methyl)-N-(1-methylethyl)-2-pyridinecarboxamide] |  | ≤ 1000 | ≤ 316 |  |  | 
O=C(Nc1cccc(Cc2cc(Cl)ccc2OCc2ccccc2)n1)C1CCOCC1 [Example 14, N-[6-({5-Chloro-2-[(phenylmethyl)oxy]phenyl}methyl)-2-pyridinyl]tetrahydro-2H-pyran-4-carboxamide] |  | ≤ 3160 | ≤ 316 |  |  | 
Clc1ccc(OCc2ccccc2)c(Cc2cccc(-c3ncc[nH]3)n2)c1 [Example 43, 2-({5-Chloro-2-[(phenylmethyl)oxy]phenyl}methyl)-6-(1H-imidazol-2-yl)pyridine Hydrochloride] |  | ≤ 1000 | ≤ 316 | ≤ 100 |  | 
Cc1cc(Cl)ccc1S(=O)(=O)NC[C@H]1C2CCC(CC2)[C@@H]1/C=C\CCCC(=O)O [ONO-8711] |  |  |  |  | reduces hyperalgesia and allodynia | inhibits mechanical hyperalgesia

Second part, led by results:

IC50 (human EP1 receptor; human EP1 calcium mobilisation assay, read-out: pIC50 values (converted)) [nM] | Ki (human EP3 receptor) [nM] | Ki (human EP1 receptor) [nM] | IC50 [1] [nM] | Compound | hyperalgesia and allodynia (EP1 receptor [2]) | mechanical hyperalgesia (EP1 receptor [3])
 | ≤ 3160 | ≤ 316 | ≤ 100 | CC(C)COc1ccc(Cl)cc1Cc1cccc(-c2nc3ncccc3[nH]2)n1 [Example 21, 2-[6-({5-Chloro-2-[(2-methylpropyl)oxy]phenyl}methyl)-2-pyridinyl]-1H-imidazo[4,5-b]pyridine hydrochloride] |  | 
 | ≤ 1000 | ≤ 316 |  | CC(C)COc1ccc(Cl)cc1Cc1cccc(-c2nc3cc4cnn(C)c4cc3[nH]2)n1 [Example 23, 6-[6-({5-Chloro-2-[(2-methylpropyl)oxy]phenyl}methyl)-2-pyridinyl]-1-methyl-1,5-dihydroimidazo[4,5-f]indazolehydrochloride] |  | 
 | ≤ 1000 | ≤ 316 |  | CC(C)COc1ccc(Cl)cc1Cc1cccc(-c2nc3c(ccc4nn[nH]c43)[nH]2)n1 [Example 25, 7-[6-({5-Chloro-2-[(2-methylpropyl)oxy]phenyl}methyl)-2-pyridinyl]-1,6-dihydroimidazo[4,5-e][1,2,3]benzotriazolehydrochloride] |  | 
 | ≤ 1000 | ≤ 316 | ≤ 100 | Clc1ccc(OCc2ccccc2)c(Cc2cccc(-c3nc4cncnc4[nH]3)n2)c1 [Example 33, 8-[6-({5-Chloro-2-[(phenylmethyl)oxy]phenyl}methyl)-2-pyridinyl]-1H-purinehydrochloride] |  | 
 | ≤ 3160 | ≤ 316 | ≤ 100 | Clc1ccc(OCc2ccccc2)c(Cc2cccc(-c3nc4cc5cn[nH]c5cc4[nH]3)n2)c1 [Example 39, 6-[6-({5-Chloro-2-[(phenylmethyl)oxy]phenyl}methyl)-2-pyridinyl]-1,5-dihydroimidazo[4,5-f]indazolehydrochloride] |  | 
 | ≤ 3160 | ≤ 10000 |  | CC(C)COc1ccc(Cl)cc1Cc1cccc(-c2nc3ccc(CN4CCCC4)cc3[nH]2)n1 [Example 49, 2-[6-({5-Chloro-2-[(2-methylpropyl)oxy]phenyl}methyl)-2-pyridinyl]-5-(1-pyrrolidinylmethyl)-1H-benzimidazole hydrochloride] |  | 
 | ≤ 3160 | ≤ 316 | ≤ 100 | CC(C)COc1ccc(Cl)cc1Cc1cccc(-c2nc3ccc(CN(C)C)cc3[nH]2)n1 [Example 51, ({2-[6-({5-Chloro-2-[(2-methylpropyl)oxy]phenyl}methyl)-2-pyridinyl]-1H-benzimidazol-5-yl}methyl)dimethylaminehydrochloride] |  | 
